Test results from patent publication US10996215B2, “Methods for determining drug efficacy for the treatment of diffuse large B-cell lymphoma, multiple myeloma, and myeloid cancers” (CELGENE CORPORATION, priority 2013, dated 2021).
pEC50: −log10 of the molar value.

How the values were obtained:
MDS-L = assay: 4 d BrdU cell assay / tritiated thymidine, sensitivity; format: cell-based
Description: (§1) Sensitivity to lenalidomide treatment in a panel of myeloid cancer cell lines was evaluated by tritiated thymidine and/or BrdU assays.

HNT-34 = assay: as above; format: cell-based
Description: as §1

[1] = test system: del(5q) MDS cell line (MDS-L); assay: tandem-mass-tagged proteomics of global cellular protein levels; format: cell-based, human
Description: (§2) Samples were subjected to multiplexed quantitative mass spectrometry analysis. In particular, cell lysate was prepared from the samples, and was subjected to tandem protein digestion using LysC and trypsin, peptide labeling with either Tandem Mass Tag 6-plex or 10-plex reagents, and peptide fractionation. Multiplexed quantitative mass spectrometry data were collected on an Orbitrap Fusion mass spectrometer operating in a MS3 mode using synchronous precursor selection for the MS2 to MS3 fragmentation. MS/MS data were searched against a Uniprot human database with both the forward and reverse sequences using the SEQUEST algorithm. Additional data processing steps included controlling peptide and protein level false discovery rates, assembling proteins from peptides, and protein quantification from peptides. Each drug-treated sample has 3 replicates, each DMSO sample has 4 replicates.
(§3) T is the statistic calculated for the t.test. P.value represents statistical significance for the test. Adj.P.value represents FDR multiple testing correction of the P.values in previous parameter. B log odds that the protein is differentially abundant between the conditions (compound vs control).

AML cell line (HNT-34) = assay: as above; format: cell-based, human; settings: 10 micromolar
Description: as §2, §3

[2] = test system: DLBCL cell lines (GCB and ABC); assay: tritiated thymidine incorporation proliferation assay; format: cell-based
Description: Cells were then cultured for 3 days at 37° C. Tritiated thymidine was applied to the cell culture for the final 6 hours and cells were then harvested onto filter plates. After the plates have dried, scintillation fluid was added to the plates and read on a Top-count reader.
The cells were then analyzed for proliferation using a ^3H-thymidine incorporation assay.
Proliferation was assessed through tritiated thymidine incorporation.

IFN pathway = assay: effect on IFN pathway (FIG. 13); format: cell-based
[3] = test system: Aiolos, Ikaros, IRF4, Cereblon; assay: Western blot of Aiolos, Ikaros, IRF4, Cereblon in DLBCL cell lines; format: cell-based, human
Description: Immunoblots were probed with antibodies recognizing: Aiolos, Ikaros, Cereblon, IRF4, c-myc, CD44, EZH2, EBF 1, PU. 1, and β-actin. Signals were detected with a LI-COR imager
The following steps can be performed to harvest cells in preparation for Western Blot analysis. The steps are performed on ice and any centrifugation is performed in a 4° C. refrigerated centrifuge. RIPA lysis buffer (Pierce, cat #89900) is first prepared by adding […] proteinase inhibitors (Pierce, cat #78443) to 1 mL of RIPA buffer. Subsequently, cells are washed once in ice-cold phosphate buffered saline (PBS). The cells are then lysed with 0.25 mL RIPA lysis buffer. The PBMCs are placed on ice for 30 minutes and vortexed every 10 minutes. Lysates are frozen and stored at −80° C. prior to further processing.
Lysates are placed in a QIAshredder® tube (QIAGEN, cat #79656) and spun down 30 sec, top speed (13200 rpm) in an Eppendorf benchtop centrifuge (Model 5415 R). The lysate is then transferred to a 1.5 mL clear Eppendorf tube and spun down 10 min at top speed. The supernatent is collected without disturbing the cell debris pellet. The supernatent is dry ice frozen and stored at −80° C. prior to analysis.
The protein concentration in supernatent is measured using BCA assay and the expected protein yield is about 0.5-5 μg/μL, or 125-1250 μg total. Approximately ≥10 μg protein per lane is loaded for western blotting (IRF4, IKZF3, etc.) using antibodies against the human proteins.
Membranes are immunblotted with anti-Aiolos (Santa Cruz Biotechnology, Dallas, Tex.), anti-Ikaros (Millipore, Billerica, Mass.) and anti-Actin (Sigma, St. Louis, Mo.; or LI-COR Biosciences, Lincoln, Nebr.) and secondary antibodies (LI-COR Biosciences, Lincoln, Nebr.). The blots are analyzed on Odyssey imager (LI-COR Biosciences, Lincoln, Nebr.).

CSNK1A1, Ikaros = assay: Western analysis of BMMC or PBMC of lenalidomide-treated AML patients; format: in vivo; settings: 50 mg daily
Description: 3-5 μg total protein from each sample was evaludated for CSNK1A1, Ikaros, and GAPDH expressions by western analysis.

CSNK1A1 (CK1α), Ikaros = assay: MG-132, MLN-4924 or Compound A pre-treatment, Western analysis in HNT-34 cells; format: cell-based; settings: 10 μM, 3 h or 6 h
[4] = test system: other myeloid cancer cell lines; assay: 4 d BrdU cell assay, sensitivity; format: cell-based; settings: other cell lines of the panel, predominantly insensitive
Description: as §1

ABC-DLBCL cell line = assay: Tandem Mass Tag proteomics, lenalidomide vs Compound A; format: cell-based; settings: ABC-DLBCL cell line; 10 uM; 24 h; vs DMSO
Text: Cells were harvested and proteins were fractionated using a basic pH reverse gradient method. Fractionated samples were labeled using a Tandem Mass Tag method.

Nc1cccc2c1CN(C1CCC(=O)NC1=O)C2=O (stereo not shown) [lenalidomide, 3-(4-amino-1-oxo-1,3-dihydro-isoindol-2-yl)-piperidine-2,6-dione]
pEC50 (MDS-L; 96 h, MDS-L, 4 d BrdU): 5.82 | sensitivity of MDS-L cells (MDS-L; FIG. 22B): sensitive | pEC50 (HNT-34; 96 h, HNT-34, 4 d BrdU): 6.22 | sensitivity of HNT-34 cells (HNT-34; FIG. 22B): sensitive | log2FC CSNK1A1 ([1]; 10 micromolar, 8 hours): −1.6 | log2FC IKZF1 ([1]; 10 micromolar, 8 hours): −2.1 | log2FC CCNA2 ([1]; 10 micromolar, 24 hours): −1.1 | log2FC CSNK1A1 ([1]; 10 micromolar, 24 hours): −1.4 | log2FC IKZF1 ([1]; 10 micromolar, 24 hours): −2.4 | log2FC SERPINH1 ([1]; 10 micromolar, 24 hours): 1.1 | log2FC ZFP91 ([1]; 10 micromolar, 24 hours): −1.4 | log2FC ARHGAP18 ([1]; 10 micromolar, 72 hours): 1.0 | log2FC CASS4 ([1]; 10 micromolar, 72 hours): 1.0 | log2FC CORO1B ([1]; 10 micromolar, 72 hours): 1.4 | log2FC CSNK1A1 ([1]; 10 micromolar, 72 hours): −1.5 | log2FC CYTL1 ([1]; 10 micromolar, 72 hours): −1.2 | log2FC DAB2 ([1]; 10 micromolar, 72 hours): 1.3 | log2FC HSPB1 ([1]; 10 micromolar, 72 hours): 1.5 | log2FC IKZF1 ([1]; 10 micromolar, 72 hours): −2.4 | log2FC ITM2C ([1]; 10 micromolar, 72 hours): −1.2 | log2FC PPFIBP1 ([1]; 10 micromolar, 72 hours): 1.2 | log2FC SERP1NH1 ([1]; 10 micromolar, 72 hours): 1.7 | log2FC YEATS2 ([1]; 10 micromolar, 72 hours): 2.5 | log2FC ZFP91 ([1]; 10 micromolar, 72 hours): −1.1 | down-regulation of Ikaros ([1]; 72 hrs, most down-regulated protein): about 5 fold | down-regulation of CSNK1A1 ([1]; 72 hrs, second most down-regulated protein): about 3 fold | log2FC CSNK1A1 (AML cell line (HNT-34); 8 hours): −1.6 | log2FC IKZF1 (AML cell line (HNT-34); 8 hours): −2.1 | log2FC CALM1 (AML cell line (HNT-34); 24 hours): −1.1 | log2FC CCNA2 (AML cell line (HNT-34); 24 hours): −1.1 | log2FC CSNK1A1 (AML cell line (HNT-34); 24 hours): −1.4 | log2FC IKZF1 (AML cell line (HNT-34); 24 hours): −2.4 | log2FC SERP1NH1 (AML cell line (HNT-34); 24 hours): 1.1 | log2FC ZFP91 (AML cell line (HNT-34); 24 hours): −1.4 | log2FC ARHGAP18 (AML cell line (HNT-34); 72 hours): 1.0 | log2FC CASS4 (AML cell line (HNT-34); 72 hours): 1.0 | log2FC CORO1B (AML cell line (HNT-34); 72 hours): 1.4 | log2FC CSNK1A1 (AML cell line (HNT-34); 72 hours): −1.5 | log2FC DAB2 (AML cell line (HNT-34); 72 hours): 1.3 | log2FC HSPB1 (AML cell line (HNT-34); 72 hours): 1.5 | log2FC IKZF1 (AML cell line (HNT-34); 72 hours): −2.4 | log2FC ITM2C (AML cell line (HNT-34); 72 hours): −1.2 | log2FC PPFIBP1 (AML cell line (HNT-34); 72 hours): 1.2 | log2FC SERPINH1 (AML cell line (HNT-34); 72 hours): 1.7 | log2FC ZFP91 (AML cell line (HNT-34); 72 hours): −1.1 | sensitivity of ABC DLBCL cell lines [2]: sensitive | sensitivity of GCB cell lines [2]: less sensitive | IFIT1, IFIT3, DDX58, XAF1, IFIH1, and OAS3 protein expression (IFN pathway; FIG. 13A): upregulates | DDX58, IFI27, IFIT1, IFIT3, DDX58, and XAF1 gene expression (IFN pathway; FIG. 13B): upregulates | ISG15 and OAS3 gene expression (IFN pathway; FIG. 13C): upregulates | IRF changes (IFN pathway; FIG. 13E): induces | IFIT1 and IFIT3 protein expression (IFN pathway; FIG. 13F): upregulates | IKKE protein level (IFN pathway; FIG. 13F): reduces | TBK1 phosphorylation (TBK1-PO4) (IFN pathway; FIG. 13F): upregulates | levels of STAT or phosphorylated STAT (IFN pathway; FIG. 13G): induces changes | IRF4 levels ([3]; DLBCL cell lines, 1 μM or 10 μM, within 72 hours): reduce | Aiolos levels ([3]; Karpas 422 (GCB) and TMD8 (ABC), 10 μM, 1, 6 or 12 hours, vs DMSO): decrease | Aiolos and Ikaros levels ([3]; WSU-DLCL2 (GCB) and OCI-LY10 (ABC), 10 μM, 1, 6 or 12 hours, vs DMSO): decreasing | CRBN levels ([3]; nine GCB and ABC DLBCL cell lines, 1 μM or 10 μM, 72 hours): remained constant | Aiolos and Ikaros levels ([3]; nine GCB and ABC DLBCL cell lines, 1 μM or 10 μM, 72 hours, vs DMSO): decreasing | patients with both CSNK1A1 and Ikaros modulated (down-regulated) (CSNK1A1, Ikaros): 4 of 5 | CSNK1A1 and Ikaros proteins levels (CSNK1A1 (CK1α), Ikaros): decreased | pEC50 [4]: < 5.00 | effect on CSNK1A1 protein (ABC-DLBCL cell line): decreases
